Results taken from patent publication US20030138429A1, “Compositions and methods for inhibiting metastasis” (priority 2001, published 2003).

Columns and labels:
1-LN cells [1] = test: MMP-9 activity in serum-free culture medium of 1-LN cells (quantitative gelatin zymography); assay type: cell-based, human
Method: Gelatin Zymography—Protein samples were electrophoresed on gelatin-containing 0.75 mm thick 10% polyacrylamide gels in the presence of SDS under nonreducing conditions. After completion of the electrophoretic run, the gels were incubated with two changes of 2.5% Triton X-100 for 1 h, followed by incubation for 18 h at 37° C. in 0.1 M glycine-NaOH, pH 8.3, containing 1 mM CaCl2, and […], before staining with Coomassie Brilliant Blue R-250 to visualize the lysis bands.
MMP-9 Activity in Solution—MMP-9 activity was measured in tissue culture supernatants by quantitative zymography using as a standard MMP-9 purified by affinity chromatography on gelatin-Sepharose from 1-LN cell conditioned medium (10 liters). Conditioned medium (50 μl), from 1-LN cell monolayers in 48 well culture plates (1.7×10^6 cells/well) incubated with Pg 2 glycoforms and/or inhibitors of Pg binding or activation, were electrophoresed on gelatin-containing gels and the degree of lysis was quantified using a Gelman ACD-15 Automatic Computing Densitometer (Gelman Instrument Company, Ann Arbor, Mich.). Values were determined by integrating the density of the selected bands and expressed in units×mm^2. Each gel was scanned three times and the average value of the integrated density of the bands was used to determine levels of MMP-9 from calibration curves constructed with purified active MMP-9 electrophoresed under the same conditions. The statistical analysis of the data was performed on an IBM 433 DX/S computer using the program SYSTAT® for Windows 95. The statistical significance of differences between means was evaluated by Student's t-test. MMP-9 was positively identified in conditioned medium by electrophoretic separation in 10% SDS-polyacrylamide gels (SDS-PAGE), electroblot of the electrophoresed proteins to nitrocellulose membranes and reaction with an anti-MMP-9 mAb (1 μg/ml) followed by reaction with a secondary alkaline phosphatase conjugated anti-mouse IgG. Detection was performed by reaction with the alkaline phosphatase substrate 5-bromo-4-chloro-3-indolyl phosphate in the presence of nitroblue tetrazolium (1 mM each) in 10 mM Tris-HCl, pH 8.5.
Effect of Pg on the Expression of MMP-9 by 1-LN Cells—Cells were seeded into 48-well culture plates and grown in RPMI 1640 containing 10% fetal bovine serum. Confluent monolayers were then incubated for 24 h with quiescent culture medium containing RPMI 1640 and 0.5% fetal bovine serum. Each individual Pg 2 glycoform (0.1 μM) was added in triplicate to cell monolayers in 300 μl of serum-free RPMI 1640 and incubated for 24 h at 37° C. Culture medium was collected to measure secretion of MMP-9 as described under Experimental Procedures. Prior to analyses of the MMP-9 secreted into the medium by 1-LN cells in the presence of individual Pg 2 glycoforms, we purified MMP-9 from conditioned medium (5 liters) by the technique of Masure et al.. […] A similar analysis of the Mr˜95,000 protein yielded the sequence APRQRQ, corresponding to the amino-terminal sequence of proMMP-9. […] We then proceeded to analyze the MMP-9 secreted into the medium by 1-LN cells incubated with each individual Pg 2 glycoform in serum-free culture medium, using the purified MMP-9 as a standard for quantification by gelatin zymography. These analyses (FIG. 7A) show a major band of active protein with a Mr˜85,000. […] Samples of these conditioned media were also subjected to SDS-PAGE under reducing conditions, electroblotted to nitrocellulose membranes and then reacted with an anti-MMP-9 mAb (FIG. 7B). […] A 4-fold decrease in the production of MMP-9 by cells co-incubated with anti-DPP IV mAb 236.3 and Pg 2ε (p<0.001) (Table II) is clearly observed in the conditioned medium (Lane 6 on FIGS. 8A and 8B, respectively).

[2] = test system: 1-LN human prostate tumor cells; test: Binding of 125I-labeled Pg 2 glycoforms to 1-LN cells; details: 125I-labeled glycoform 0.1 μM, increasing concentrations of inhibitor
Method: Ligand Binding Analysis—Cells were grown in tissue culture plates until the monolayers were confluent. Prior to use in binding assays, the cells were washed in HBSS. All binding assays were performed at 4° C. in RPMI 1640 containing 2% bovine serum ablumin (BSA). Increasing concentrations of ^125I-labeled Pg 2 glycoforms were incubated with cells for 60 min in 48-well or 96-well culture plates, respectively. Free ligand was separated from bound by aspirating the incubation mixture by and washing the cell monolayers rapidly three times with RPMI 1640 containing 2% BSA. The cells were then lyzed with 0.1 M NaOH, and bound radioactivity was determined in a Pharmacia LKB Biotechnology 1272-gamma counter. Molecules of ligand bound were calculated after substraction of non-specific binding measured in the presence of nonlabeled 100 μM Pg 2. Estimates for dissociation constant (Kd) values and maximal binding of Pg 2 glycoforms (Bmax) were determined by fitting data directly to the Langmuir isotherm using the statistical program SYStat® for Windows.
Binding of Single Pg 2 Glycoforms to 1-LN Human Prostate Tumor Cells—Binding of ^125I-labeled single Pg 2 glycoforms to 1-LN cells was determined as described under Experimental Procedures. Native Pg 2 has six glycoforms which differ in their sialic acid content.
In order to assess the binding mechanism of the individual Pg 2 glycoforms to 1-LN cells, we studied their activation by cells incubated with each glycoform in the presence of 6-aminohexanoic acid (6-AHA) and L-lactose. The antifibrinolytic amino acid 6-AHA prevents interaction of Pg L-lysine binding sites with several cell membrane-associated components. L-lactose is a sugar which intereferes with binding of Neu 5-AC (α2-3) or (α2-6) residues to sialic acid binding proteins and inhibits binding of Native Pg 2 to DPP IV on the surface of rheumatoid synovial fibroblasts.

1-LN cells [3] = test: In vitro Matrigel invasion assay (modified Boyden chamber); assay type: cell-based, human; details: cells incubated with Pg (Pg 2ε) plus inhibitor, in words
Method: In Vitro Invasion Assay—The invasive activity in vitro was assessed by determining the ability of 1-LN cells to invade Matrigel® [47]. Polycarbonate filters (8-μm pore size; Becton Dickinson, Franklin Lakes, N.J.) were coated with Matrigel (12 μg/filter) and placed in a modified Boyden chamber. Cells (1×10^5) were added to the upper chamber in serum-free RPMI 1640 medium, or medium containing purified Pg 2 glycoforms in the absence and presence of anti-DPP IV, anti-u-PA or anti-MMP-9 IgGs, and incubated for 48 h in a humidified atmosphere. Following incubation, non-invading cells were removed from the upper chamber with a cotton swab, and filters were excised and stained with Cyto-Quik™ (Fisher Scientific, Fair Lawn, N.J.). Cells on the lower surface of the filter were enumerated using an ocular micrometer and counting a minimum of five high-powered fields. Each experiment was performed twice with triplicate samples.
Effect of Pg on 1-LN Cellular Invasion—Pg enhances the ability of prostate cancer PC-3 and DU-145 cell lines to penetrate the synthetic basement membrane Matrigel® [54]. To determine whether Pg regulates invasion via secretion of MMP-9, 1-LN cells were incubated with different inhibiting antibodies in the presence of purified Pg 2 glycoforms.

Compound | Active MMP-9 (1-LN cells [1]; SFM + additive alone, no Pg 2 glycoform, 24 h) | Changes in the production of MMP-9 (1-LN cells [1]; co-incubated with 6-AHA (100 mM) and individual Pg 2 glycoforms, versus controls) | Inhibition of binding of single Pg 2 glycoforms to 1-LN cells [2] | Effect on Pg-induced Matrigel invasion by 1-LN cells (1-LN cells [3])
NCCCCCC(=O)O [Glycoform 6-AHA, 6-aminohexanoic acid, reference compound] | 0.61 ± 0.14 ng/mL | did not show any major changes | inhibited the binding of Pg 2α and Pg 2β | 
FN peptide L1768 TSRPA: polypeptide comprising the fibronectin (FN) primary sequence L1768 TSRPA that mediates FN binding to CD26/DPP IV (FPAPDG; UniProt P02751 1768-1773, looked up, fragment) |  |  |  | inhibited Pg-induced Matrigel invasion by 1-LN cells in a dose-dependent manner
angiostatin |  |  |  | total inhibition
